From patent US12116357B2, “Heteroaryl-triazole and heteroaryl-tetrazole compounds as pesticides” (Bayer Aktiengesellschaft, priority 2018, dated 2024)

Key:
Format in all cases: in vivo
Boophilus microplus = Boophilus microplus injection test; conditions: Rhipicephalus microplus, 168 h, 20 μg/animal, egg deposition after 7 days, read-out: efficacy (infertile eggs)
Procedure: (§1) • Solvent: dimethyl sulfoxide
To produce a suitable preparation of active compound, 10 mg of active compound are dissolved in 0.5 ml solvent, and the concentrate is diluted with solvent to the desired concentration.
Five adult engorged female ticks (Boophilus microplus) are injected with 1 μl compound solution into the abdomen. The ticks are transferred into replica plates and incubated in a climate chamber.
After 7 days egg deposition of fertile eggs is monitored. Eggs where fertility is not visible are stored in a climate chamber till hatching after about 42 days. An efficacy of 100% means all eggs are infertile; 0% means all eggs are fertile.

Ctenocephalides felis [1] = assay: Ctenocephalides felis oral test; conditions: 48 h, 100 ppm in cattle blood, after 2 days
Procedure: as §1
To produce a suitable preparation of active compound, 10 mg of active compound are dissolved in 0.5 ml solvent, and the concentrate is diluted with cattle blood to the desired concentration.
Approximately 20 adult unfed cat fleas (Ctenocephalides felis) are placed in flea chambers. The blood chamber, sealed with parafilm on the bottom, are filled with cattle blood supplied with compound solution and placed on the gauze covered top of the flea chamber, so that the fleas are able to suck the blood. The blood chamber is heated to 37° C. whereas the flea chamber is kept at room temperature.
After 2 days mortality in % is determined. 100% means all the fleas have been killed; 0% means none of the fleas have been killed.

Myzus persicae [2] = assay: Myzus persicae oral test; conditions: 120 h
Outline: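 Mixed-population aphids feed through parafilm on compound solution (acetone concentrate diluted with water) combined with IPL41 insect medium (33%+15% sugar). Mortality (%) read after 5 days, 100% meaning all aphids killed.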

Myzus persicae [3] = assay: Myzus persicae spray test; conditions: 120 h
Procedure: (§2) • Solvent: 78.0 parts by weight acetone • 1.5 parts by weight dimethylformamide • Emulsifier: alkylarylpolyglycol ether
(§3) To produce a suitable preparation of active compound, 1 part by weight of active compound is mixed with the stated amount of solvents and is diluted with water, containing an emulsifier concentration of 1000 ppm, to the desired concentration. Further test concentrations are prepared by dilution with emulsifier containing water.
Chinese cabbage (Brassica pekinensis) leaf disks infected with all instars of the green peach aphid (Myzus persicae), are sprayed with a preparation of the active ingredient of the desired concentration.
After 5 days mortality in % is determined. 100% means all aphids have been killed and 0% means none of the aphids have been killed.

Nezara viridula = Nezara viridula spray test; conditions: 96 h
Procedure: (§4) • Solvent: 78.0 parts by weight of acetone • 1.5 parts by weight of dimethylformamide • Emulsifier: alkylarylpolyglycol ether
as §3, with “solvent,” for “solvents”, “and the concentrate” for “and”
Barley plants (Hordeum vulgare) infested with larvae of the southern green stink bug (Nezara viridula) are sprayed with a test solution containing the desired concentration of the active ingredient.
After 4 days mortality in % is determined. 100% means all the stink bugs have been killed; 0% means none of the stink bugs have been killed.

Nilaparvata lugens = Nilaparvata lugens spray test; conditions: 96 h
Procedure: as §4, §3
Rice plants (Oryza sativa) are sprayed with a preparation of the active ingredient of the desired concentration and the plants are infested with the brown planthopper (Nilaparvata lugens).
After 4 days mortality in % is determined. 100% means all planthoppers have been killed and 0% means none of the planthoppers have been killed.

Phaedon cochleariae = Phaedon cochleariae spray test; conditions: 168 h, after 7 days
Procedure: as §4, §3
Chinese cabbage (Brassica pekinensis) leaf disks are sprayed with a preparation of the active ingredient of the desired concentration. Once dry, the leaf disks are infested with mustard beetle larvae (Phaedon cochleariae).
After 7 days mortality in % is determined. 100% means all beetle larvae have been killed and 0% means none of the beetle larvae have been killed.

Spodoptera frugiperda = Spodoptera frugiperda spray test; conditions: 168 h
Procedure: as §2, §3
Maize (Zea mays) leaf sections are sprayed with a preparation of the active ingredient of the desired concentration. Once dry, the leaf sections are infested with fall armyworm larvae (Spodoptera frugiperda).
After 7 days mortality in % is determined. 100% means all caterpillars have been killed and 0% means none of the caterpillars have been killed.

[4] = system: Aedes aegypti strain MONHEIM; assay: Aedes aegypti test (surface treatment & contact assay); conditions: 24 hours after contact, read-out: efficacy (mortality); for mortality at 20 mg/m2: surface concentration 20 mg/m^2, 30 min exposure; for mortality at 4 mg/m2: surface concentration 4 mg/m^2, 30 min exposure
Procedure: (§5) • Solvent: Aceton+2000 ppm rapeseed oil methyl ester (RME)
(§6) In order to produce a sufficient, active ingredient containing solution it is necessary to solve the test compound in the solvent-mix (acetone at 2 mg/ml/RME 2000 ppm). This solution is pipetted onto a glazed tile and after evaporation of the acetone, adult mosquitoes of the species Aedes aegypti strain MONHEIM are placed onto the dried surface. The exposure time is 30 minutes.
(§7) Mortality in percent (%) is determined 24 hours after contact of the insects to the treated surface. 100% mortality means that all tested insects are dead, whereas 0% means that no insect died.

[5] = system: Musca domestica strain WHO-N; assay: Musca domestica test (surface treatment & contact assay); conditions: 24 hours after contact, read-out: efficacy (mortality); for mortality at 4 mg/m2: surface concentration 4 mg/m^2, 30 min exposure; for mortality at 20 mg/m2: surface concentration 20 mg/m^2, 30 min exposure
Procedure: as §5
as §6, with “flies” for “mosquitoes”, “Musca domestica” for “Aedes aegypti”, “WHO-N” for “MONHEIM”
as §7

[6] = system: Blattella germanica strain PAULINIA; assay: Blattella germanica test (surface treatment & contact assay); conditions: 24 hours after contact, read-out: efficacy (mortality); for mortality at 20 mg/m2: surface concentration 20 mg/m^2, 30 min exposure
Procedure: as §5
as §6, with “animals” for “mosquitoes”, “Blattella germanica” for “Aedes aegypti”, “MONHEIM” left out
as §7

Ctenocephalides felis [7] = assay: Ctenocephalides felis in-vitro contact test, adult cat flea; conditions: 5 μg/cm^2, after 48 hours, read-out: efficacy (fleas dead or moribund)
Procedure: (§8) 9 mg compound is solved in 1 ml acetone and diluted with acetone to the desired concentration. 250 μl of the test solution is filled in 25 ml glass test tubes and homogeneously distributed on the inner walls by rotation and tilting on a shaking device (2 h at 30 rpm). With a compound concentration of 900 ppm, an inner surface of 44.7 cm^2 and a homogeneous distribution, a dose of 5 μg/cm^2 is achieved.
(§9) After the solvent has evaporated, each test tube is filled with 5-10 adult cat fleas (Ctenocephalides felis), closed with a perforated lid and incubated in a lying position at room temperature and relative humidity. After 48 hours efficacy is determined. The fleas are patted on the ground of the tubes and are incubated on a heating plate at 45-50° C. for at most 5 minutes. Immotile or uncoordinated moving fleas, which are not able to escape the heat by climbing upwards, are marked as dead or moribund.
An efficacy of 100% means all fleas are dead or moribund; 0% means no fleas are dead or moribund.

Rhipicephalus sanguineus = Rhipicephalus sanguineus in-vitro contact test, adult brown dog ticks
Procedure: as §8
as §9, with “brown dog ticks (Rhipicephalus sanguineus),” for “cat fleas (Ctenocephalides felis),”, “ticks” for “fleas”, “ticks,” for “fleas,”
An efficacy of 100% means all ticks are dead or moribund; 0% means no ticks are dead or moribund.

[8] = system: Tetranychus urticae (OP-Resistant); assay: Tetranychus urticae (OP-resistant) spray test; conditions: 144 h, after 6 days
Procedure: as §2, §3
French bean (Phaseolus vulgaris) leaf disks infected with all instars of the two spotted spidermite (Tetranychus urticae), are sprayed with a preparation of the active ingredient of the desired concentration.
After 6 days mortality in % is determined. 100% means all spider mites have been killed and 0% means none of the spider mites have been killed.

[9] = system: Culex quinquefasciatus strain P00; assay: Culex quinquefasciatus test (surface treatment & contact assay); conditions: 24 hours after contact, read-out: efficacy (mortality); for mortality at 4 mg/m2: surface concentration 4 mg/m^2, 30 min exposure; for mortality at 20 mg/m2: surface concentration 20 mg/m^2, 30 min exposure
Procedure: as §5
as §6, with “Culex quinquefasciatus” for “Aedes aegypti”, “P00” for “MONHEIM”
as §7

[10] = system: Anopheles funestus strain FUMOZ-R; assay: Anopheles funestus test (surface treatment & contact assay); conditions: 24 hours after contact, read-out: efficacy (mortality); for mortality at 4 mg/m2: surface concentration 4 mg/m^2, 30 min exposure; for mortality at 20 mg/m2: surface concentration 20 mg/m^2, 30 min exposure
Procedure: as §5
as §6, with “Anopheles funestus” for “Aedes aegypti”, “FUMOZ-R (Hunt et al., Med. Vet. Entomol. 2005 September; 19(3): 271-275)” for “MONHEIM”
as §7

Row | SMILES | pest or weed control at 0.02 mg (Boophilus microplus) [%] | mortality at 100 ppm (Ctenocephalides felis [1]) [%] | mortality at 4 ppm (Myzus persicae [2]) [%] | mortality at 20 ppm (Myzus persicae [2]) [%] | mortality at 500 g/ha (Nezara viridula) [%] | mortality at 500 g/ha (Nilaparvata lugens) [%] | mortality at 500 g/ha (Phaedon cochleariae) [%] | mortality at 500 g/ha (Spodoptera frugiperda) [%] | mortality at 20 mg/m2 [4] [%] | mortality at 4 mg/m2 [5] [%] | mortality at 20 mg/m2 [5] [%] | pest or weed control at 5 µg/cm2 (Ctenocephalides felis [7]) [%] | efficacy (ticks dead or moribund) (Rhipicephalus sanguineus; 1 μg/cm^2, after 48 hours) [%] | mortality at 500 g/ha [8] [%] | mortality at 20 mg/m2 [10] [%] | also measured
1 | CC(c1ncnn1-c1ncccn1)N(CC1CS(=O)(=O)C1)C(=O)c1cc(Cl)cc(C(F)(F)F)c1 (stereo not shown) [Example I-004] | 100 | 100 | 100 | 100 | 100 | 100 | 100 | 100 | 90 to 100 | 90 to 100 | 90 to 100 | – | – | – | – | mortality at 500 g/ha (Myzus persicae [3]): 100%; mortality at 4 mg/m2 ([6]; surface concentration 4 mg/m^2, 30 min exposure): 80 to 100%; mortality at 20 mg/m2 [6]: 80 to 100%
2 | CCOCN(C(=O)c1cc(Cl)cc(C(F)(F)F)c1)C(C)c1ncnn1-c1ncccn1 (stereo not shown) [Example I-013, 3-Chloro-N-(ethoxymethyl)-N-{1-[1-(pyrimidin-2-yl)-1H-1,2,4-triazol-5-yl]ethyl}-5-(trifluoromethyl)benzamide] | 100 | 100 | 100 | 100 | – | 100 | 100 | 100 | – | – | – | 100 | 100 | 80 | – | efficacy (ticks dead or moribund) (Rhipicephalus sanguineus; 5 μg/cm^2, after 48 hours): 100%
3 | CSCCN(C(=O)c1cc(Cl)cc(C(F)(F)F)c1)C(C)c1ncnn1-c1ncccn1 (stereo not shown) [Example I-017] | 100 | 100 | 100 | 100 | 100 | 100 | 100 | 100 | 90 to 100 | 90 to 100 | 90 to 100 | 100 | 80 | – | 85 to 100 | efficacy (ticks dead or moribund) (Rhipicephalus sanguineus; 5 μg/cm^2, after 48 hours): 100%; mortality at 4 mg/m2 [4]: 80 to 100%; mortality at 4 mg/m2 [9]: 85 to 100%; mortality at 20 mg/m2 [9]: 90 to 100%; mortality at 4 mg/m2 [10]: 85 to 100%
4 | CC(c1ncnn1-c1ncccn1)N(C(=O)c1cc(Cl)cc(C(F)(F)F)c1)C1COC1 (stereo not shown) [Example I-021] | 100 | 100 | 100 | 100 | 100 | – | 100 | 83 | 90 to 100 | – | 90 to 100 | 100 | – | – | – | mortality at 4 mg/m2 [4]: 80 to 100%; mortality at 20 mg/m2 [6]: 80 to 100%
5 | CON(C(=O)c1cc(Cl)cc(C(F)(F)F)c1)C(C)c1ncnn1-c1ncccn1 (stereo not shown) [Example I-026] | 100 | 100 | 100 | 100 | 100 | – | 100 | 100 | – | – | – | – | – | 90 | – | –
6 | CCON(C(=O)c1cc(Cl)cc(C(F)(F)F)c1)C(C)c1ncnn1-c1ncccn1 (stereo not shown) [Example I-027] | 100 | 100 | 100 | 100 | 100 | – | 100 | – | – | – | – | 100 | 100 | 80 | 85 to 100 | mortality at 4 mg/m2 [10]: 85 to 100%
7 | CSCCN(C(=O)c1cc(Cl)cc(S(C)(=O)=O)c1)C(C)c1ncnn1-c1ccc(C#N)cn1 (stereo not shown) [Example I-035] | – | – | 100 | – | 100 | 90 | – | 100 | 90 to 100 | 90 to 100 | 90 to 100 | 100 | – | 90 | 85 to 100 | mortality at 500 g/ha (Myzus persicae [3]): 90%; mortality at 4 mg/m2 [9]: 85 to 100%; mortality at 20 mg/m2 [9]: 90 to 100%
